Columns and labels:
Type in all cases: in vivo
transplanted rice plant = assay: Test Example 1: effect on crop, application before weed generation in submerged conditions (symbol a); conditions: application herbicide amount 320 g/ha
Procedure, shortened: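 Rice at 2.5 leaf stage transplanted into submerged soil (4 cm depth) sown with three weed species; herbicide applied before weed emergence.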

Scirpus juncoides = assay: Test Example 2: herbicidal activity, application during weed generation in submerged conditions (symbol B); conditions: Table 23; application herbicide amount 320 g/ha; grade 0-5 by criteria of Test Example 1
Procedure, shortened: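 Each pot contained alluvial soil under 4 cm of water with seeds of all three weeds sown together. Following growth at 25° C. to 30° C. to the one- to two-leaf stage, the floodwater received diluted emulsion at a predetermined amount; visual assessment followed at 3 weeks.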

Digitaria ciliaris = assay: Test Example 4: herbicidal effect by soil treatment (symbol F)
Procedure, shortened: (§1)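 Seeds were sown in sterilized diluvial soil, covered with about 1.5 cm of soil, and the soil surface was sprayed with a water-diluted emulsion of the compound at a predetermined rate. Plants grew in a greenhouse at 25° C. to 30° C.; effects were scored visually 3 weeks after application.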

Alopecurus myosuroides [1] = assay: Test Example 4: herbicidal effect by soil treatment (symbol J)
Procedure, shortened: as §1

Galium spurium = assay: Test Example 4: herbicidal effect by soil treatment (symbol Q)
Procedure, shortened: as §1

corn [2] = assay: Test Example 4: effect on crop by soil treatment (symbol c)
Procedure, shortened: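 Crop seed is sown in spots together with several weed species in a box of sterilized diluvial soil. It is covered by about 1.5 cm of soil and kept in a greenhouse held between 25° C. and 30° C.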

rice = assay: Test Example 4: effect on crop by soil treatment (symbol b)
Procedure, shortened: (§2)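 Plants are raised in a greenhouse (25° C. to 30° C.) from spot-sown seed, which sits under about 1.5 cm of sterilized diluvial soil in a box shared with weed species.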

rapeseed = assay: Test Example 4: effect on crop by soil treatment (symbol g)
Procedure, shortened: as §2

Alopecurus myosuroides [3] = assay: Test Example 5: herbicidal effect by foliage application, plastic box (symbol J); conditions: 320 g/ha, 3 weeks after application
Procedure, shortened: (§3)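 Emulsion formulation, diluted with water to the intended rate, was applied uniformly to leaves by small sprayer. Recipients were 14-day greenhouse-grown seedlings (25° C. to 30° C.). Assessment followed at 3 weeks.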

Lolium multiflorum Lam. = assay: Test Example 5: herbicidal effect by foliage application, plastic box (symbol K); conditions: 320 g/ha, 3 weeks after application
Procedure, shortened: as §3

Veronica persica = assay: Test Example 5: herbicidal effect by foliage application, plastic box (symbol R); conditions: 320 g/ha, 3 weeks after application
Procedure, shortened: as §3

corn [4] = assay: Test Example 5: effect on crop by foliage application, plastic box (symbol c); conditions: 320 g/ha, 3 weeks after application
Procedure, shortened: (§4)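 A greenhouse held between 25° C. and 30° C. was used to grow plants sown spot-wise, beneath ~1.5 cm of soil, in boxes of sterilized diluvial soil.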

wheat = assay: Test Example 5: effect on crop by foliage application, plastic box (symbol e); conditions: 320 g/ha, 3 weeks after application
Procedure, shortened: as §4

beet = assay: Test Example 5: effect on crop by foliage application, plastic box (symbol f); conditions: 320 g/ha, 3 weeks after application
Procedure, shortened: as §4

[5] = application herbicide amount 320 g/ha

Structure (SMILES) | Effect grade on crop, a: transplanted rice plant (transplanted rice plant) | Herbicidal effect grade, B: Scirpus juncoides (Scirpus juncoides) | F: Digitaria ciliaris, herbicidal effect grade (Digitaria ciliaris; [5]) | J: Alopecurus myosuroides, herbicidal effect grade (Alopecurus myosuroides [1]; [5]) | Q: Galium spurium, herbicidal effect grade (Galium spurium; [5]) | c: corn, effect on crop grade (corn [2]; [5]) | b: directly sowed rice plant, effect on crop grade (rice; [5]) | g: rapeseed, effect on crop grade (rapeseed; [5]) | J: Alopecurus myosuroides, herbicidal effect grade (Alopecurus myosuroides [3]) | K: Lolium multiflorum Lam., herbicidal effect grade (Lolium multiflorum Lam.) | R: Veronica persica, herbicidal effect grade (Veronica persica) | c: corn, effect on crop grade (corn [4]) | e: wheat, effect on crop grade (wheat) | f: beet, effect on crop grade (beet) | further results
Cc1cc(C)c(C2=C(O)CC(CC(=O)C3CC3)C2=O)c(C)c1 (centres unmarked) [2-017] | 5 (Herbicidal ratio of 90% or more (almost completely withered)) | 4 (Herbicidal ratio of 70% or higher and lower than 90%) | 5 (Herbicidal ratio of 90% or more (almost completely withered)) | 3 (Herbicidal ratio of 40% or higher and lower than 70%) | 0 (Herbicidal ratio of 5% or lower (almost no effect)) | 0 (Herbicidal ratio of 5% or lower (almost no effect)) | 5 (Herbicidal ratio of 90% or more (almost completely withered)) | 5 (Herbicidal ratio of 90% or more (almost completely withered)) | 4 (Herbicidal ratio of 70% or higher and lower than 90%) | 5 (Herbicidal ratio of 90% or more (almost completely withered)) | 0 (Herbicidal ratio of 5% or lower (almost no effect)) | 2 (Herbicidal ratio of 20% or higher and lower than 40%) | 0 (Herbicidal ratio of 5% or lower (almost no effect)) | 0 (Herbicidal ratio of 5% or lower (almost no effect)) | 
CON=C(C)CC1CC(OCC(=O)OC)=C(c2c(C)cc(C)cc2C)C1=O (centres unmarked) [1-012] | 0 (Herbicidal ratio of 5% or lower (almost no effect)) | 0 (Herbicidal ratio of 5% or lower (almost no effect)) |  |  |  |  |  |  | 0 (Herbicidal ratio of 5% or lower (almost no effect)) | 0 (Herbicidal ratio of 5% or lower (almost no effect)) | 0 (Herbicidal ratio of 5% or lower (almost no effect)) | 0 (Herbicidal ratio of 5% or lower (almost no effect)) | 0 (Herbicidal ratio of 5% or lower (almost no effect)) | 0 (Herbicidal ratio of 5% or lower (almost no effect)) | F (Digitaria ciliaris) herbicidal effect grade (Digitaria ciliaris; [5]): 0 (Herbicidal ratio of 5% or lower (almost no effect)); J (Alopecurus myosuroides) herbicidal effect grade (Alopecurus myosuroides [1]; [5]): 0 (Herbicidal ratio of 5% or lower (almost no effect)); Q (Galium spurium) herbicidal effect grade (Galium spurium; [5]): 0 (Herbicidal ratio of 5% or lower (almost no effect)); c (corn) effect on crop grade (corn [2]; [5]): 0 (Herbicidal ratio of 5% or lower (almost no effect)); b (directly sowed rice plant) effect on crop grade (rice; [5]): 0 (Herbicidal ratio of 5% or lower (almost no effect)); g (rapeseed) effect on crop grade (rapeseed; [5]): 0 (Herbicidal ratio of 5% or lower (almost no effect))
CCC(=O)CCC1CC(O)=C(c2c(C)cc(C)cc2C)C1=O (centres unmarked) [5-001] | 0 (Herbicidal ratio of 5% or lower (almost no effect)) | 0 (Herbicidal ratio of 5% or lower (almost no effect)) | 4 (Herbicidal ratio of 70% or higher and lower than 90%) | 2 (Herbicidal ratio of 20% or higher and lower than 40%) | 0 (Herbicidal ratio of 5% or lower (almost no effect)) | 0 (Herbicidal ratio of 5% or lower (almost no effect)) | 5 (Herbicidal ratio of 90% or more (almost completely withered)) | 0 (Herbicidal ratio of 5% or lower (almost no effect)) | 5 (Herbicidal ratio of 90% or more (almost completely withered)) | 5 (Herbicidal ratio of 90% or more (almost completely withered)) | 0 (Herbicidal ratio of 5% or lower (almost no effect)) | 2 (Herbicidal ratio of 20% or higher and lower than 40%) | 0 (Herbicidal ratio of 5% or lower (almost no effect)) |  | 
CON=C(C)CC1CC(OC(=O)C(C)(C)c2ccc(Cl)cc2)=C(c2c(C)cc(C)cc2C)C1=O (centres unmarked) [1-148] | 5 (Herbicidal ratio of 90% or more (almost completely withered)) | 4 (Herbicidal ratio of 70% or higher and lower than 90%) |  |  |  |  |  |  |  |  |  |  |  |  | F: Digitaria ciliaris, herbicidal effect grade (Digitaria ciliaris; 320 g/ha): 5 (Herbicidal ratio of 90% or more (almost completely withered)); J: Alopecurus myosuroides, herbicidal effect grade (Alopecurus myosuroides [1]; 320 g/ha): 5 (Herbicidal ratio of 90% or more (almost completely withered)); Q: Galium spurium, herbicidal effect grade (Galium spurium; 320 g/ha): 0 (Herbicidal ratio of 5% or lower (almost no effect)); c: corn, effect grade on crop (corn [2]; 320 g/ha): 3 (Herbicidal ratio of 40% or higher and lower than 70%); b: directly sowed rice plant, effect grade on crop (rice; 320 g/ha): 5 (Herbicidal ratio of 90% or more (almost completely withered)); g: rapeseed, effect grade on crop (rapeseed; 320 g/ha): 4 (Herbicidal ratio of 70% or higher and lower than 90%); J: Alopecurus myosuroides, herbicidal effect (criteria 0-5) (Alopecurus myosuroides [3]): 5 (Herbicidal ratio of 90% or more (almost completely withered)); K: Lolium multiflorum Lam., herbicidal effect (criteria 0-5) (Lolium multiflorum Lam.): 5 (Herbicidal ratio of 90% or more (almost completely withered)); R: Veronica persica, herbicidal effect (criteria 0-5) (Veronica persica): 3 (Herbicidal ratio of 40% or higher and lower than 70%); c: corn, effect on crop (criteria 0-5) (corn [4]): 4 (Herbicidal ratio of 70% or higher and lower than 90%); e: wheat, effect on crop (criteria 0-5) (wheat): 5 (Herbicidal ratio of 90% or more (almost completely withered)); f: beet, effect on crop (criteria 0-5) (beet): 3 (Herbicidal ratio of 40% or higher and lower than 70%)
CCOC(=O)C(C(=O)C(C)C)C1CC(O)=C(c2c(C)cc(C)cc2C)C1=O (centres unmarked) [2-009] | 0 (Herbicidal ratio of 5% or lower (almost no effect)) | 0 (Herbicidal ratio of 5% or lower (almost no effect)) | 2 (Herbicidal ratio of 20% or higher and lower than 40%) | 0 (Herbicidal ratio of 5% or lower (almost no effect)) | 0 (Herbicidal ratio of 5% or lower (almost no effect)) | 0 (Herbicidal ratio of 5% or lower (almost no effect)) | 5 (Herbicidal ratio of 90% or more (almost completely withered)) | 0 (Herbicidal ratio of 5% or lower (almost no effect)) | 1 (Herbicidal ratio of 5% or higher and lower than 20%) | 1 (Herbicidal ratio of 5% or higher and lower than 20%) | 0 (Herbicidal ratio of 5% or lower (almost no effect)) | 0 (Herbicidal ratio of 5% or lower (almost no effect)) | 0 (Herbicidal ratio of 5% or lower (almost no effect)) | 0 (Herbicidal ratio of 5% or lower (almost no effect)) | 
CCc1cc(Br)cc(C)c1C1=C(O)CC(CC(C)=NOC)C1=O (centres unmarked) [6-001] | 5 (Herbicidal ratio of 90% or more (almost completely withered)) | 0 (Herbicidal ratio of 5% or lower (almost no effect)) | 5 (Herbicidal ratio of 90% or more (almost completely withered)) | 5 (Herbicidal ratio of 90% or more (almost completely withered)) | 0 (Herbicidal ratio of 5% or lower (almost no effect)) | 5 (Herbicidal ratio of 90% or more (almost completely withered)) | 5 (Herbicidal ratio of 90% or more (almost completely withered)) | 2 (Herbicidal ratio of 20% or higher and lower than 40%) | 5 (Herbicidal ratio of 90% or more (almost completely withered)) | 5 (Herbicidal ratio of 90% or more (almost completely withered)) | 0 (Herbicidal ratio of 5% or lower (almost no effect)) | 5 (Herbicidal ratio of 90% or more (almost completely withered)) | 5 (Herbicidal ratio of 90% or more (almost completely withered)) | 0 (Herbicidal ratio of 5% or lower (almost no effect)) | 

From patent publication US11000033B2, “Ketone or oxime compound, and herbicide” (NISSAN CHEMICAL CORPORATION, priority 2014, dated 2021)
